Data taken from patent US20260028336A1 (Arcus Biosciences, Inc., priority 2022, published 2026).

Assays:
[1] = tested on: Jurkat cells; test: IL-2 secretion assay in CD3/CD28-activated Jurkat cells (AlphaLISA); format: cell-based; details: Homo sapiens, CD3/CD28 T Cell Activator, 24 h, IL-2 AlphaLISA
Outline: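 Jurkat cells (50,000/well) were preincubated 1 h at 37° C with compound in a 16-point 1:2 series spanning 10 μM to 300 pM final. Cells were then activated with CD3/CD28 T cell activator, and secreted IL-2 was read by AlphaLISA. EC50 came from 4-parameter logistic fits.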

[2] = target: T1, Cbl-b (Homo sapiens, UniProt Q13191); test: Cbl-b probe displacement HTRF binding assay; details: 0.4 nM biotinylated Cbl-b, 150 nM BODIPY probe
T1 construct: biotin (biotinylated)
Outline: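 Biotinylated Cbl-b was preincubated with compound for 60 min at room temperature in HEPES/NaCl/Triton/TCEP/BSA buffer. BODIPY probe was added for 15 min, followed by streptavidin-terbium, and the HTRF signal was read. Displacement was normalised to DMSO and no-protein controls, and affinity was obtained from a four-parameter dose-response fit.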

T1 sequence (Q13191 whole entry, species assumed): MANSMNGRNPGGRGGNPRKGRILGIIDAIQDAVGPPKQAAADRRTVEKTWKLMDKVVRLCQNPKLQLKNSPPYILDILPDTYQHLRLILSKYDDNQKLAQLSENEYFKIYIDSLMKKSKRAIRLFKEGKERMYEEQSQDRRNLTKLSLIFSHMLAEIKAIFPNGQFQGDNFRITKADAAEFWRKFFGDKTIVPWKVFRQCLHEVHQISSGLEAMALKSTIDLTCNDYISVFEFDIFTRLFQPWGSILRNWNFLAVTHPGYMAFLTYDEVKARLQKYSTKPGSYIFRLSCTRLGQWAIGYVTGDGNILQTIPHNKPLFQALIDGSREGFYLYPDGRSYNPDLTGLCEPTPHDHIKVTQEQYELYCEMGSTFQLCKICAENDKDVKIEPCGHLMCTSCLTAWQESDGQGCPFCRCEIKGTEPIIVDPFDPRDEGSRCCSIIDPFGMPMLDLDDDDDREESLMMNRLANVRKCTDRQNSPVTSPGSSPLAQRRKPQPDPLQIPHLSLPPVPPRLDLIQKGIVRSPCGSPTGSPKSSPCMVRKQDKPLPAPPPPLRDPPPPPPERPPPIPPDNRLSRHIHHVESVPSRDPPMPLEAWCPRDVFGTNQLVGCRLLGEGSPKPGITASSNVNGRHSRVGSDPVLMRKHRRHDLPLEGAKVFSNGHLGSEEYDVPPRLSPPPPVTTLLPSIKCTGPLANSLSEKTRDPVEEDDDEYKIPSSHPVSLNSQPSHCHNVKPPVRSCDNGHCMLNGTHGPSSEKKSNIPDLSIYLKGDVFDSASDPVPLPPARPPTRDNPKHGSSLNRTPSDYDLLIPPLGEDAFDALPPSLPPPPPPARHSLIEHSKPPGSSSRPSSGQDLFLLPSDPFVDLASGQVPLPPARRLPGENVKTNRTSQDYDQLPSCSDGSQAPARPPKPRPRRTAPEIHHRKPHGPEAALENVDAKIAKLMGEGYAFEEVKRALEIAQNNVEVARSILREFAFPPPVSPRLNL

SMILES	EC50 [1]	IC50 [2]
Cn1cnnc1[C@]1(c2cccc(-n3cc(S(C)(=O)=O)c4cc[nH]c4c3=O)c2)C[C@H](C)C1 (single isomer, unassigned) [Example 108, 6-[3-[3-methyl-1-(4-methyl-1,2,4-triazol-3-yl)cyclobutyl]phenyl]-4-methylsulfonyl-1H-pyrrolo[2,3-c]pyridin-7-one]	> 5 µM	0.1 to 1 µM
CC1CC(c2cccc(-n3cc(C4CC4)c4cc(CN5C[C@@H]6C[C@H]5CN6C)[nH]c4c3=O)c2)(c2nncn2C)C1 (stereo partly drawn) [Example 62]	> 5 µM	0.1 to 1 µM
CC1CC(c2cccc(-n3cc(C4CC4)c4cc(CN5C[C@H](F)C[C@H](F)C5)[nH]c4c3=O)c2)(c2nncn2C)C1 (stereo partly drawn) [Example 67, 4-cyclopropyl-2-{[(3R,5S)-3,5-difluoropiperidin-1-yl]methyl}-6-{3-[(1r)-3-methyl-1-(4-methyl-4H-1,2,4-triazol-3-yl)cyclobutyl]phenyl}-1H,6H,7H-pyrrolo[2,3-c]pyridin-7-one]	1 to 5 µM	0.1 to 1 µM
CC1CC(c2cccc(-n3cc(C4CC4)c4cc(CN5[C@@H]6COC[C@H]5C6)[nH]c4c3=O)c2)(c2nncn2C)C1 (stereo partly drawn) [Example 60, 4-cyclopropyl-6-{3-[3-methyl-1-(4-methyl-4H-1,2,4-triazol-3-yl)cyclobutyl]phenyl}-2-{[(1R,5S)-3-oxa-6-azabicyclo[3.1.1]heptan-6-yl]methyl}-1H,6H,7H-pyrrolo[2,3-c]pyridin-7-one]	1 to 5 µM	< 0.1 µM
CC1CC(c2cccc(-n3cc(C4CC4)c4cc(CN5CCCC[C@@H]5C)[nH]c4c3=O)c2)(c2nncn2C)C1 (stereo partly drawn) [Example 43, 4-cyclopropyl-6-{3-[3-methyl-1-(4-methyl-4H-1,2,4-triazol-3-yl)cyclobutyl]phenyl}-2-{[(2S′)-2-methylpiperidin-1-yl]methyl}-1H,6H,7H-pyrrolo[2,3-c]pyridin-7-one]	< 0.1 µM	< 0.1 µM
Cn1cnnc1C1(c2cccc(-n3cc(C4CC4)c4cc(CN5CC[C@@H](F)[C@H](O)C5)[nH]c4c3=O)c2)CC(F)(F)C1 [Example 93, 4-cyclopropyl-6-{3-[3,3-difluoro-1-(4-methyl-4H-1,2,4-triazol-3-yl)cyclobutyl]phenyl}-2-{[(3R,4R)-4-fluoro-3-hydroxypiperidin-1-yl]methyl}-1H,6H,7H-pyrrolo[2,3-c]pyridin-7-one]	1 to 5 µM	0.1 to 1 µM
C[C@H]1CCCN(Cc2cc3c(C4CC4)cn(-c4cccc(C5(c6nncn6C)CC6(CC6)C5)c4)c(=O)c3[nH]2)C1 [Example 74, 4-cyclopropyl-2-[[(3S)-3-methylpiperidin-1-yl]methyl]-6-[3-[5-(4-methyl-1,2,4-triazol-3-yl)spiro[2.3]hexan-5-yl]phenyl]-1H-pyrrolo[2,3-c]pyridin-7-one]	< 0.1 µM	< 0.1 µM
C[C@H]1CCCN(Cc2cc3c(C4CC4)cn(-c4cccc(C5(c6nncn6C6CC6)CC6(CC6)C5)c4)c(=O)c3[nH]2)C1 [Example 144, 4-cyclopropyl-6-[3-[5-(4-cyclopropyl-1,2,4-triazol-3-yl)spiro[2.3]hexan-5-yl]phenyl]-2-[[(3S)-3-methylpiperidin-1-yl]methyl]-1H-pyrrolo[2,3-c]pyridin-7-one]	0.1 to 1 µM	< 0.1 µM
Cn1cnnc1C1(c2cccc(-n3cc(C4CC4)c4cc(CNC5(CF)CCC5)[nH]c4c3=O)c2)CC(F)(F)C1 [Example 89, 4-cyclopropyl-6-{3-[3,3-difluoro-1-(4-methyl-4H-1,2,4-triazol-3-yl)cyclobutyl]phenyl}-2-({[1-(fluoromethyl)cyclobutyl]amino}methyl)-1H,6H,7H-pyrrolo[2,3-c]pyridin-7-one]	0.1 to 1 µM	< 0.1 µM
